Results as given in publication PMC6731595, “The anti-parasitic agent suramin and several of its analogues are inhibitors of the DNA binding protein Mcm10” (Open Biology, 2019).

How the values were obtained:
[1] = tested on: DNA replication of sperm chromatin in Xenopus egg extracts; assay: In vitro DNA replication assay in Xenopus S-phase egg extracts ([α-32P]dGTP incorporation); assay type: biochemical; details: 10, 50, 150 and 300 µM
Experimental: Xenopus egg extracts were prepared according to the method of Murray. Replication of sperm chromatin in S-phase egg extracts was monitored as previously described. Compounds identified by HTS were added to replication reactions immediately prior to addition of [α-^32P]dGTP (Perkin Elmer BLU514H250UC).
To determine whether the four remaining confirmed HTS hits affected DNA replication, in vitro replication assays were performed using Xenopus S-phase egg extracts incubated with sperm chromatin [25, 34]. DNA replication was measured in the presence of bronopol, fumarprotocetraric acid, iriginol and suramin or DMSO by the incorporation of [α-^32P]dGTP. […] For this reason, further studies focused on suramin alone.
Figure 1. Suramin inhibits DNA replication in an in vitro Xenopus replication assay. HTS hits were evaluated for inhibition of [α-^32P]dGTP incorporation into DNA using a cell-free extract prepared from Xenopus eggs at increasing concentrations (10, 50, 150 and 300 µM indicated by black triangle from right to left). No chemical (–) and DMSO were used as negative controls for replication inhibition (far left and far right lanes).

[2] = target: T1, Xenopus internal domain Mcm10 (xMcm10-ID) (Xenopus laevis, UniProt Q5EAW4); assay: Fluorescence polarization HTS and dose-response assay, 5′-6FAM probe binding to xMcm10-ID; details: dose-response with repurchased or purchased compound
T1 construct: xMcm10-ID (amino acid residues 229 to 427); 6xHis (HRV 3C site) (N, cleaved yes); made in house; host or cells: E. coli BL21(DE3)
T1 sequence (Q5EAW4 229-427): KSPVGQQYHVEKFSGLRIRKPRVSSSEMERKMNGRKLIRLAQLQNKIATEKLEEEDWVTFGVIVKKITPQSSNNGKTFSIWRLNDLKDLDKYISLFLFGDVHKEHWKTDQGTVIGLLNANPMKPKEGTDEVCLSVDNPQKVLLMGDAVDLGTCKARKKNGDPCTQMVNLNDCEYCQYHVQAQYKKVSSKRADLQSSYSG
Experimental: (§1) A fluorescence polarization (FP) HTS assay was established to detect inhibitors of the binding of the 5′-6FAM 10-mer oligo probe to Mcm10. Test compounds dissolved in DMSO were added to 384-well plates (Corning 4514) using an Echo 550 acoustic dispenser (final DMSO 0.1%) to achieve a final single point screening concentration of 10 µM. Then 10 µl of 2× Xenopus internal domain Mcm10 (xMcm10-ID, final concentration 2 µM) in binding buffer (20 mM Tris HCl, 100 mM NaCl, 5% glycerol, and 0.01% triton, pH 7.5) was added using the Combi nL Multidrop dispenser. Finally, 10 µl of 2× 5′-6FAM DNA (final 12.5 nM) in binding buffer was added using the Multidrop. DMSO (0.1%, high signal) and probe only (low signal) controls were included on every plate. Plates were mixed for 2 min, incubated for 60 min at RT in the dark, and read on a CLARIOstar multimode plate reader (excitation: 482-16, emission: 530-40, dichroic filter: LP504).
(§2) The LOPAC pilot screen identified the sulfhydryl reagent 4-chloromercuribenzoic acid as an inhibitor in the fluorescence polarization (FP) assay. As there was no known Mcm10 inhibitor, 4-chloromercuribenzoic acid (30 μM) was used as a positive control on initial screening plates. Following the discovery of suramin as a Mcm10 inhibitor, suramin (7 μM) was used as a positive control on subsequent screening plates. To confirm activity, screening hits were tested in dose response experiments (8 concentrations in duplicate) using xMcm10-ID. Similar dose response experiments were conducted with suramin and its analogs to confirm activity for hMcm10-ID (1 μM) and xMcm10-FL (2 μM) and to determine selectivity relative to RPA70AB (0.4 μM). Saturation experiments for each protein were conducted using increasing concentrations of protein with a fixed probe concentration (12.5 nM). FP was measured in mP units, and ∆mP values for each well were calculated as the difference between the measured mP and the average of the “probe only” controls. […] The parallel and perpendicular mP values were also used to calculate total fluorescence intensity (TFI) determined by the sum of parallel mP + (2 x perpendicular mP). TFI was used to detect fluorescence interference by compounds [1]. […] IC50 values were calculated using the four parameter logistic equation in Prism 6.0 (GraphPad). Ki values were obtained using an online Ki calculator according to the equations of Nikolovska-Coleska (http://sw16.im.med.umich.edu/soft-ware/calc_ki/). KD values were calculated using the one site or two site binding equations in Prism 6.0 (GraphPad).

[3] = target: T2, human Mcm10 internal domain (hMcm10-ID) (Homo sapiens, UniProt Q7L590); assay: Fluorescence polarization competition assay, displacement of 5′-6FAM 10-mer ssDNA probe from hMcm10-ID; assay type: binding; details: mean ± s.e.m., n ≥ 3; hMcm10-ID 1 μM, probe 12.5 nM
T2 construct: hMcm10-ID (residues 237 to 436) were expressed in E. coli strain BL21(DE3); 6xHis (HRV 3C site) (N, cleaved yes); made in house; host or cells: E. coli BL21(DE3)
T2 sequence (Q7L590 237-436): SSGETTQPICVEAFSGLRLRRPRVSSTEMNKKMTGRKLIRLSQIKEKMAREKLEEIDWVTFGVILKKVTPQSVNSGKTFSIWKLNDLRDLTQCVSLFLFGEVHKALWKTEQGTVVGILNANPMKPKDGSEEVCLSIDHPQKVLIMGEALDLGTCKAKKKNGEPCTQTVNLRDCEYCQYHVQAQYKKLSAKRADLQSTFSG
Experimental: as §1, §2

[4] = target: T3, full-length Xenopus Mcm10 (xMcm10-FL) (Xenopus laevis, UniProt Q5EAW4); assay: Fluorescence polarization competition assay, displacement of 5′-6FAM ssDNA probe from xMcm10-FL; assay type: binding; details: averages of n = 2; xMcm10-FL 2 μM
T3 construct: The full-length xMcm10 was expressed with MBP fused onto the N-terminus and 6x-His tag attached to the C-terminus; 6xHis (C); made in house; host or cells: E. coli BL21(DE3), as for the ID constructs ('as described above')
T3 sequence (Q5EAW4 1-860): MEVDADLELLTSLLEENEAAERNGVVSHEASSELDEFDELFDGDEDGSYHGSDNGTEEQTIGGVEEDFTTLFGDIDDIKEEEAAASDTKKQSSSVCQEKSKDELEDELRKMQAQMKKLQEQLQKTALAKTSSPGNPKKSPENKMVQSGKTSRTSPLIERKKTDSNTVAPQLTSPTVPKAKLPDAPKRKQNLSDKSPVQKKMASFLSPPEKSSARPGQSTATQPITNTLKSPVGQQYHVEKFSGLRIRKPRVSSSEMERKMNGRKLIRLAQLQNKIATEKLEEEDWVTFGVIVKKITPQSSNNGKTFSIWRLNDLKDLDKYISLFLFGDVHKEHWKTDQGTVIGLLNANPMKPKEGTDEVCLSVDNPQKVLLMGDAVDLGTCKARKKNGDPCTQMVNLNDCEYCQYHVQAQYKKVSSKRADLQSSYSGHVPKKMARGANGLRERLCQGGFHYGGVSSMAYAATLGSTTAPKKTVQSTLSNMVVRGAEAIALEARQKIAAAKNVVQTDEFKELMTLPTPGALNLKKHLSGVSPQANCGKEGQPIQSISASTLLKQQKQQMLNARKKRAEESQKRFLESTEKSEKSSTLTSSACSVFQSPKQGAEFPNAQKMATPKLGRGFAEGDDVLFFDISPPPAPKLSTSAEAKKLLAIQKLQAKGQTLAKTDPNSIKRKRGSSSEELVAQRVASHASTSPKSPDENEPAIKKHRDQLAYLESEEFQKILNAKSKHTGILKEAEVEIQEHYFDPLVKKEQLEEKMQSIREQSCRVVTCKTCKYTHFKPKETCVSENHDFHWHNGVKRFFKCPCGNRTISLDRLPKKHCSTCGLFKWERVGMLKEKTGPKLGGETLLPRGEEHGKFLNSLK
Experimental: as §1, §2

[5] = target: T4, human RPA70AB (A and B DNA binding domains of RPA70) (Homo sapiens, UniProt P27694); assay: Fluorescence polarization competition assay, displacement of 5′-6FAM ssDNA probe from RPA70AB
T4 construct: recombinant human RPA70AB (181-422) in a pSV281 vector; 6xHis (TEV site) (N, cleaved yes); made in house; host or cells: Escherichia coli BL21(DE3)
Experimental: as §1, §2

[6] = target: T5, hMcm10-ID (Homo sapiens, UniProt Q7L590); assay: Surface plasmon resonance binding kinetics on immobilized hMcm10-ID (Biacore S200)
T5 construct: hMcm10-ID (residues 237 to 436) were expressed in E. coli strain BL21(DE3); 6xHis (HRV 3C site) (N, cleaved yes); made in house; host or cells: E. coli BL21(DE3)
T5 sequence (Q7L590 237-436): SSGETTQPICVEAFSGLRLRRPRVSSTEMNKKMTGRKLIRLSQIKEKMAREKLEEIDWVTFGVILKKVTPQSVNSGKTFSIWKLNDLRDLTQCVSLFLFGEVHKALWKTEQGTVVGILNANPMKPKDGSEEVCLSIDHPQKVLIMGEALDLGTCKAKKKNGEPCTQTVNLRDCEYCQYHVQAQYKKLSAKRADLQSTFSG
Experimental: SPR experiments were performed using a Biacore S200 (GE Healthcare) equipped with a research-grade CM5 sensor chip. hMcm10-ID, at a concentration of 15 µg ml^−1 in 10 mM sodium acetate, pH 4.5, […], using an amine coupling kit (GE Healthcare) to either flow cell 2 or 4 following manufacturer directions. The reference flow cell (either flow cell 1 or 3) was left untreated. All compounds were dissolved in running buffer (10 mM PBS, 150 mM NaCl, 0.005% P20, pH 7.4) prior to injection over the chip surface at a flow rate of 30 µl min^−1 and at a temperature of 25°C. Zero concentration samples were injected for double referencing. Data were collected at a rate of 40 Hz and were fitted to a simple 1 : 1 interaction model (unless otherwise noted) using the global data analysis within the Biacore S200 evaluation software.

T4 sequence (P27694 181-422): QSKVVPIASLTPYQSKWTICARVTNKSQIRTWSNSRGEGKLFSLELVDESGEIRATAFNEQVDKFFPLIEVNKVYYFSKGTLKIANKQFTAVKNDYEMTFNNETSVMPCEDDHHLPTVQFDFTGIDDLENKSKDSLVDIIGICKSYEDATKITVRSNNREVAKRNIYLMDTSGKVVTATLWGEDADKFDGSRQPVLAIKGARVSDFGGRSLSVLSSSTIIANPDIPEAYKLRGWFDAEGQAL

| inhibition of 5′-6FAM probe binding to xMcm10-ID (result in words) [2] | Ki [3] [nM] | Ki [4] [nM] | selectivity for hMcm10 over RPA70AB ([5]; FP) | IC50 ([5]; below lower limit of the sensitivity of the assay, read-out: IC50 value for the high affinity component, hRPA70AB) [nM] | Ki ([5]; predominant low-affinity (or only) component, mean ± s.e.m., n ≥ 3, read-out: fluorescence polarization hRPA70AB Ki2) [nM] | selectivity RPA/ hMcm10 ([5]; ratio of hRPA70AB Ki2 to hMcm10-ID Ki (FP)) | surface plasmon resonance hMcm10-ID kd ([6]; 1:1 model, 6000–8000 RU, 25°C) [s^−1] | kon ([6]; 1:1 model, 6000–8000 RU, 25°C, read-out: surface plasmon resonance hMcm10-ID ka) [M⁻¹ s⁻¹] | Kd ([6]; calculated from association and dissociation rate constants, 1:1 model, 6000–8000 RU, read-out: surface plasmon resonance hMcm10-ID kinetic KD) [nM] | SPR binding kinetics (description of sensorgrams) ([6]; immobilized hMcm10-ID) | SMILES | DNA replication, [α-32P]dGTP incorporation (result in words) [1] |
| --- | --- | --- | --- | --- | --- | --- | --- | --- | --- | --- | --- | --- |
| active |  |  |  |  |  |  |  |  |  |  | O=[N+]([O-])C(Br)(CO)CO [bronopol] | only suramin exhibited a dose-dependent decrease in DNA replication |
| active |  |  |  |  |  |  |  |  |  |  | Cc1cc(O)c(C=O)c2c1C(=O)Oc1c(COC(=O)/C=C/C(=O)O)c(O)c(C(=O)O)c(C)c1O2 [fumarprotocetraric acid] | only suramin exhibited a dose-dependent decrease in DNA replication |
|  | 440 ± 40 | 1900 | more than 10 fold | 93 | 14000 ± 400 | 32 | 0.59 ± 0.10 | 780000 ± 1e+09 | 740 ± 130 | predominantly rapid kinetics | O=C(Nc1cc(C(=O)Nc2ccc(S(=O)(=O)O)cc2S(=O)(=O)O)cc(C(=O)Nc2ccc(S(=O)(=O)O)cc2S(=O)(=O)O)c1)Nc1cc(C(=O)Nc2ccc(S(=O)(=O)O)cc2S(=O)(=O)O)cc(C(=O)Nc2ccc(S(=O)(=O)O)cc2S(=O)(=O)O)c1 [NF449] |  |
